Assay [1] has as its system ICR (Institute of Cancer Research) mouse. Put plainly: Croton oil-induced ear edema test. Format: in vivo. The settings on record: oral, 100 mg/kg. As for the experimental part:
Male ICR (Institute of Cancer Research) mouse with body weight of about 20 to 30 g were tested wherein each group had 6 mouses. After 1 hour of the oral administration of a test compound, Croton oil (in acetone solution) was coated on one of the ears. After 4 hours, the thickness of the swollen ear in treated group was compared with the other unswollen ear and obtained the average increase rate in thickness of ear by the treatment.

Assay [2] shares this test system. Kind of assay: Arachidonic acid-induced ear edema test. Type of assay: in vivo. The settings on record: oral, 100 mg/kg. On the procedure:
Male ICR (Institute of Cancer Research) mouse with body weight of about 20 to 30 g were tested wherein each group had 6 mouses. After 1 hour of the oral administration of a test compound, Arachidonic acid (in acetone solution) was coated on one of the ears. After 1 hour, the thickness of the swollen ear in treated group was compared with the other unswollen ear and obtained the average increase rate in thickness of ear by the treatment.

Assay [3] shares this test system. Put plainly: Analgesic test (acetic acid-induced stretchings). Format: in vivo. The settings on record: oral, 100 mg/kg. On the procedure: Male ICR (Institute of Cancer Research) mouse with body weight of about 20 to 30 g were tested wherein each group had 6 mouses. After 1 hour of the oral administration of a test compound, acetic acid (in distilled water) was abdominally administered. For the duration of 10 minutes, the animals were observed regarding the number of stretchings and the number was compared with that of placebo treated group and the result is shown in the following table 7.

In assay [4] the test system is TNF-α. Put plainly: Cytokine inhibitory activity in animal model (LPS-treated SD rats), plasma TNF-α. Type of assay: in vivo, Sprague Dawley (SD) rats. The settings on record: for TNF-α Inhibition Rate (Conc.) / inhibition in vivo at 40 mg/kg: SD rats, oral, LPS, 40 mg/kg; for inhibitory activity on production of TNF-α compared to Indomethacin: rat model, in words; for inhibition in vivo at 40 mg/kg: Rattus norvegicus, 2 h, read-out: TNF-α Inhibition Rate (Conc.). As for the experimental part: Sprague Dawley (SD) rats with body weights of about 180 to about 200 g were fasted (free drinking) and then tested. Test compounds were administered orally at 40 mg/kg and then abdominally administered with LPS 1 μg/mL after 1 hour. After 2 hours, the rats were sacrificed and bloods were collected from abdominal vein, stored at room temperature for about 2 hours, and then centrifuged at 12,000 rpm for about 2 minutes. Thus produced plasma was respectively collected and its TNF-α in each plasma was quantitated using mouse TNF-α ELISA kit based on the amount of recombinant TNF-α in rats. The plate used was coated with anti-rat TNF-α monoclone IgG antibodies. Likewise, for the test of IL-1α, IL-1α in each plasma was quantitated using the above plasma and mouse IL-1α ELISA kit based on the amount of recombinant IL-1α in rats. The plate used was coated with anti-rat IL-1α monoclone IgG antibodies. Further, for the test of IL-6, IL-6 in each plasma was quantitated using the above plasma and mouse IL-6 ELISA kit based on the amount of recombinant IL-6 in rats. Further, for the test of INF-γ, INF-γ in each plasma was quantitated using the above plasma and mouse INF-γ ELISA kit based on the amount of recombinant INF-γ in rats. The plate used was coated with anti-rat INF-γ monoclone IgG antibodies. From the above tests, inhibitory rates on the expression of each cytokine were obtained and they were compared to that of Indomethacin.

For assay [5], the system named is TNF-α. Put plainly: Cytokine inhibitory activity in cells: LPS-induced TNF-α in RAW 264.7. Type of assay: cell-based, murine. The settings on record: for TNF-α Inhibition Rate (%) / inhibition at 1 µM / inhibition at 10 µM / inhibition at 100 µM / inhibition at 1000 µM: RAW 264.7, LPS 1 μg/mL; for inhibition at 1 µM / inhibition at 10 µM / inhibition at 100 µM / inhibition at 1000 µM: Mus musculus, RAW264.7, read-out: TNF-α Inhibition Rate (%); for inhibitory activity in RAW 264.7 cell line on the production of TNF-α, in words: compared to the control compounds. On the procedure:
General reagents used were purchased from Sigma-Aldrich chem. Co. and cytokine inhibitory activities were tested as follows. Mediums and reagents used in cell culture were purchased from GIBCO BRL (USA), and mouse TNF-α ELISA kit was purchased from R&D system (USA). The apparatus used ELISA reader (Spectra max-Plus 384, Molecular Device, USA).
Murine macrophage cell line RAW 264.7 was kindly provided by Korean Tissue Culture Center (KTCC). The cell line was cultured in DMEM medium containing 10% FBS, in a cell culturing device at the condition of 37° C., 5% CO2. First, murine RAW 264.7 was cultured in DMEM medium containing 10% FBS for about 24 hours, and cells were planted 200 μL each in 96 well plates at the concentration of 5×10^5/mL and cultured for about 24 hours. Then, test compounds were treated at various concentrations and then reacted at 37° C. for about 1 hour, wherein 1 μg/mL of lipopolysaccharide (LPS) was added thereto and reacted at 37° C. for about 12 hours. The supernatant was recovered and the amount of murine TNF-α on the medium was quantitated using ELISA kit. Thalidomide was respectively used as a positive and a negative control to compare the activities and the results are shown in the following tables 4a -4c.

The structures appear in SMILES notation.

With `Cc1ccc(-c2cc(C(F)(F)F)nn2-c2ccc(S(N)(=O)=O)cc2)cc1` [Celecoxib, reference compound], the “Inhibition Rate (%)” value stood at 35% in assay [1], 33% in assay [2] and 81% in assay [3].

`CC(=O)Oc1nc(C)cc2c1C(=O)OCC2` [Ex. 21, 6-methyl-1-oxo-3,4-dihydro-1H-pyrano[3,4-c]pyridine-8-yl acetic ester]: the “TNF-α Inhibition Rate (Conc.)” value in assay [4] was 93% (40 mg/kg). Besides, the “inhibitory activity on production of TNF-α compared to Indomethacin” value (“inhibitory activity … compared to Indomethacin” below) in assay [4] was 1.5 or 2 times greater. Further, the “TNF-α Inhibition Rate (%)” value in assay [5] (test conc. 1 μM) was determined as 9%; in assay [5] (test conc. 10 μM), 15%; in assay [5] (test conc. 100 μM), 34%; in assay [5] (test conc. 1 mM) it was 77%.

As to `Cc1cc2c(c(-c3ccc(F)cc3)n1)C(=O)OCC2` [Ex. 30, 8-(4-fluorophenyl)-6-methyl-3,4-dihydro-pyrano[3,4-c]pyridine-1-on], in assay [4], the inhibition in vivo at 40 mg/kg came to 79% and the “inhibitory activity … compared to Indomethacin” value was 1.5 or 2 times greater. Besides, the inhibition (commonly how much of the control response was suppressed) at 1 µM in assay [5] (test conc. 1 μM) is 100%. In addition, the inhibition at 10 µM in assay [5] (test conc. 10 μM) was found to be 100%. In addition, the inhibition at 100 µM in assay [5] (test conc. 100 μM) amounted to 100%. Further, the inhibition at 1000 µM in assay [5] (test conc. 1 mM) came to 100%. In assay [5], the “inhibitory activity in RAW 264.7 cell line on the production of TNF-α, in words” value (“inhibitory activity … in words” below) is “superiorities over to the control compounds”.

As for `Cc1cc2c(c(N3CCCCC3)n1)C(=O)OCC2` [Ex. 32, 6-methyl-8-piperidine-1-yl-3,4-dihydro-pyrano[3,4-c]pyridine-1-on], in assay [4], the inhibition in vivo at 40 mg/kg was found to be 74% and the “inhibitory activity … compared to Indomethacin” value is on record as 1.5 or 2 times greater. Besides, the inhibition at 1 µM in assay [5] (test conc. 1 μM) was 69%. Also, in assay [5] (test conc. 10 μM), the inhibition at 10 µM was determined as 78%. The inhibition at 100 µM in assay [5] (test conc. 100 μM) was 89%. The inhibition at 1000 µM in assay [5] (test conc. 1 mM) worked out at 100%.

On to `Cc1cc2c(c(N3CCOCC3)n1)C(=O)OCC2` [Ex. 33, 6-methyl-8-morpholine-4-yl-3,4-dihydro-pyrano[3,4-c]pyridine-1-on], for which, in assay [4], the inhibition in vivo at 40 mg/kg stood at 90% and the “inhibitory activity … compared to Indomethacin” value is 1.5 or 2 times greater. In addition, the inhibition at 10 µM in assay [5] (test conc. 10 μM) was determined as 9%. In assay [5] (test conc. 100 μM), the inhibition at 100 µM is 18%. Moreover, the inhibition at 1000 µM in assay [5] (test conc. 1 mM) stood at 29%.

As to `Cc1cc2c(c(N)n1)C(=O)OCC2` [Ex. 53, 8-amino-6-methyl-3,4-dihydro-pyrano[3,4-c]pyridine-1-on], the inhibition in vivo at 40 mg/kg in assay [4] amounted to 53%. The inhibition at 1 µM in assay [5] (test conc. 1 μM) is 85%. Further, the inhibition at 10 µM in assay [5] (test conc. 10 μM) amounted to 100%. Further, the inhibition at 100 µM in assay [5] (test conc. 100 μM) turned out to be 100%. Besides, the inhibition at 1000 µM in assay [5] (test conc. 1 mM) came out at 100%. In assay [5], the “inhibitory activity … in words” value is reported as “superiorities over to the control compounds”.

As for `Cc1nc(-c2ccccc2)cc2c1C(=O)OCC2` [Ex. 77, 8-methyl-6-phenyl-3,4-dihydro-pyrano[3,4-c]pyridine-1-on], the inhibition in vivo at 40 mg/kg in assay [4] worked out at 66%. Also, the inhibition at 1 µM in assay [5] (test conc. 1 μM) came to 68%. Further, the inhibition at 10 µM in assay [5] (test conc. 10 μM) turned out to be 76%. In assay [5] (test conc. 100 μM), the inhibition at 100 µM is 89%. Besides, the inhibition at 1000 µM in assay [5] (test conc. 1 mM) worked out at 100%. Further, the “inhibitory activity … in words” value in assay [5] is recorded as “superiorities over to the control compounds”.

Regarding `CC(=O)Oc1nc(-c2ccccc2)cc2c1C(=O)OCC2` [Ex. 78, 1-oxo-6phenyl-3,4-dihydro-1H-pyrano[3,4-c]pyridine-8-yl acetic ester], the “TNF-α Inhibition Rate (Conc.)” value in assay [4] is recorded as 68% (40 mg/kg). Also, the “TNF-α Inhibition Rate (%)” value in assay [5] (test conc. 1 μM) was found to be 79%; in assay [5] (test conc. 10 μM) it was 85%; in assay [5] (test conc. 100 μM) it was 98%; in assay [5] (test conc. 1 mM) it was 100%. The “inhibitory activity … in words” value in assay [5] is recorded as “superiorities over to the control compounds”.

As to `COc1nc(-c2ccccc2)cc2c1C(=O)OCC2` [Ex. 79, 8-methoxy-6-phenyl-3,4-dihydro-pyrano[3,4-c]pyridine-1-on], in assay [4], the inhibition in vivo at 40 mg/kg came out at 78% and the “inhibitory activity … compared to Indomethacin” value is recorded as 1.5 or 2 times greater. Also, the inhibition at 1 µM in assay [5] (test conc. 1 μM) came out at 76%. Further, the inhibition at 10 µM in assay [5] (test conc. 10 μM) turned out to be 8%. Further, the inhibition at 100 µM in assay [5] (test conc. 100 μM) was determined as 94%. Further, the inhibition at 1000 µM in assay [5] (test conc. 1 mM) came out at 100%. Besides, the “inhibitory activity … in words” value in assay [5] is on record as “superiorities over to the control compounds”.

`S=C1OCCc2ccncc21` [Ex. 113, 3,4-dihydro-pyrano[3,4-c]pyridine-1-thione]: in assay [5] (test conc. 1 μM), the inhibition at 1 µM amounted to 10%. The inhibition at 10 µM in assay [5] (test conc. 10 μM) came out at 19%. Also, the inhibition at 100 µM in assay [5] (test conc. 100 μM) is 28%. In addition, the inhibition at 1000 µM in assay [5] (test conc. 1 mM) is 42%.

As to `COc1ccc(CN2CCc3ccncc3C2=O)cc1` [Ex. 115, 2-(4methoxy-benzyl)-3,4-dihydro-2H-[2,7]naphtyridine-1-on], in assay [4], the “TNF-α Inhibition Rate (Conc.)” value is given as 43% (40 mg/kg). Besides, the “TNF-α Inhibition Rate (%)” value is on record as 50% in assay [5] (test conc. 1 μM), 59% in assay [5] (test conc. 10 μM), 65% in assay [5] (test conc. 100 μM) and 78% in assay [5] (test conc. 1 mM).

In the case of `O=C1NCCc2ccncc21` [Ex. 116, 3,4-dihydro-2H-[2,7]naphtyridine-1-on], the “TNF-α Inhibition Rate (%)” value in assay [5] (test conc. 10 μM) is listed as 10%; in assay [5] (test conc. 100 μM), 18%; in assay [5] (test conc. 1 mM), 29%.

Turning to `O=C1c2cnccc2CCN1Cc1ccccc1` [Ex. 117, 2-benzyl-3,4-dihydro-2H-[2,7]naphtyridine-1-on], the “TNF-α Inhibition Rate (Conc.)” value in assay [4] is given as 69% (40 mg/kg). For the same molecule, the “TNF-α Inhibition Rate (%)” value worked out at 10% in assay [5] (test conc. 1 μM), 18% in assay [5] (test conc. 10 μM), 29% in assay [5] (test conc. 100 μM) and 35% in assay [5] (test conc. 1 mM).

Turning to `O=C1OC(c2ccccc2)Cc2ccncc21` (stereo not drawn) [Ex. 120a, 3-phenyl-3,4-dihydro-pyrano[3,4-c]pyridine-1-on], in assay [5] (test conc. 1 μM), the inhibition at 1 µM amounted to 43%. In assay [5] (test conc. 10 μM), the inhibition at 10 µM turned out to be 54%. For the same molecule, the inhibition at 100 µM in assay [5] (test conc. 100 μM) turned out to be 66%. The inhibition at 1000 µM in assay [5] (test conc. 1 mM) is 85%.

As for `O=C1NC(c2ccccc2)Cc2ccncc21` (stereo not drawn) [Ex. 120b, 3-phenyl-3,4-dihydro-2H-[2,7]naphtyridine-1-on], the “TNF-α Inhibition Rate (%)” value amounted to 26% in assay [5] (test conc. 1 μM), 30% in assay [5] (test conc. 10 μM), 32% in assay [5] (test conc. 100 μM) and 42% in assay [5] (test conc. 1 mM).

For `O=C1CCC(N2C(=O)c3ccccc3C2=O)C(=O)N1` (stereo not drawn) [Thalidomide, reference compound], in assay [5] (test conc. 1 μM), the inhibition at 1 µM was found to be 8%. Besides, the inhibition at 10 µM in assay [5] (test conc. 10 μM) was 12%. In addition, the inhibition at 100 µM in assay [5] (test conc. 100 μM) is 20%. Also, the inhibition at 1000 µM in assay [5] (test conc. 1 mM) was 21%.

Values taken from US7601736B2, “Pyridine derivatives, a process for their preparation and a pharmaceutical composition containing the same” (SK Chemicals Co., Ltd., priority 2003, dated 2009).
